Data: US12338220B2, “Antiviral pyrazolopiridinone compounds” (Novartis AG, priority 2019, dated 2025)
Like-named read-outs stand apart in the source and are kept apart here.

Assays:
CMV-polymerase = CMV-polymerase (Human cytomegalovirus (strain AD169) (HHV-5) (Human herpesvirus 5), UniProt P08546); assay: biochemical
CMV = assay: microbe, parasite or virus in culture; type: cell-based; conditions: Human betaherpesvirus 5, 72 h, read-out: CMV-Luc Cellular EC50, NN-NHDF cells, MOI 1, 72 hrs
[1] = CMV-polymerase Biochemical IC50
[2] = read-out: CMV-polymerase Biochemical IC50

SMILES: CNC(=O)C(C)(C)S(=O)(=O)C1(CN2CCc3c(C(=O)NCc4ccc(Cl)cc4)nn(C)c3C2=O)CC1 [Example 110, N-(4-Chlorobenzyl)-1-methyl-6-((1-((2-methyl-1-(methylamino)-1-oxopropan-2-yl)sulfonyl)cyclopropyl)methyl)-7-oxo-4,5,6,7-tetrahydro-1H-pyrazolo[3,4-c]pyridine-3-carboxamide]
- IC50 (CMV-polymerase; [1]): 0.005 µM
- EC50 (CMV): 0.218 µM

SMILES: Cn1nc(C(=O)NCc2ccc(C#N)cc2)c2c1C(=O)N(CC1(S(=O)(=O)C3(CCO)CC3)CC1)CC2 [Example 117, N-(4-Cyanobenzyl)-6-((1-((1-(2-hydroxyethyl)cyclopropyl)sulfonyl)cyclopropyl)methyl)-1-methyl-7-oxo-4,5,6,7-tetrahydro-1H-pyrazolo[3,4-c]pyridine-3-carboxamide]
- IC50 (CMV-polymerase; [2]): 0.004 µM
- EC50 (CMV): 0.035 µM

SMILES: Cn1nc(C(=O)NCc2ccc(C#N)cc2)c2c1C(=O)N(CC1(S(=O)(=O)CC(C)(C)O)CC1)CC2 [Example 118, N-(4-Cyanobenzyl)-6-((1-((2-hydroxy-2-methylpropyl)sulfonyl)cyclopropyl)methyl)-1-methyl-7-oxo-4,5,6,7-tetrahydro-1H-pyrazolo[3,4-c]pyridine-3-carboxamide]
- IC50 (CMV-polymerase; [2]): 0.019 µM
- EC50 (CMV): 0.327 µM

SMILES: Cn1nc(C(=O)NCc2ccc(C#N)cc2)c2c1C(=O)N(CC1(S(=O)(=O)[C@H]3C[C@@H](O)C3)CC1)CC2 [Example 119, N-(4-Cyanobenzyl)-6-((1-(((1s,3s)-3-hydroxycyclobutyl)sulfonyl)cyclopropyl)methyl)-1-methyl-7-oxo-4,5,6,7-tetrahydro-1H-pyrazolo[3,4-c]pyridine-3-carboxamide]
- IC50 (CMV-polymerase; [1]): 0.004 µM
- EC50 (CMV): 0.156 µM

SMILES: Cn1nc(C(=O)NCc2ccc(C#N)cc2)c2c1C(=O)N(CC1(S(=O)(=O)[C@H]3C[C@H](O)C3)CC1)CC2 [Example 120, N-(4-Cyanobenzyl)-6-((1-(((1r,3r)-3-hydroxycyclobutyl)sulfonyl)cyclopropyl)methyl)-1-methyl-7-oxo-4,5,6,7-tetrahydro-1H-pyrazolo[3,4-c]pyridine-3-carboxamide]
- IC50 (CMV-polymerase; [1]): 0.003 µM
- EC50 (CMV): 0.151 µM

SMILES: Cn1nc(C(=O)NCc2ccc(Cl)cc2)c2c1C(=O)N(CC1(S(N)(=O)=O)CC1)CC2 [Example 121, N-(4-chlorobenzyl)-1-methyl-7-oxo-6-((1-sulfamoylcyclopropyl)methyl)-4,5,6,7-tetrahydro-1H-pyrazolo[3,4-c]pyridine-3-carboxamide]
- IC50 (CMV-polymerase; [1]): 0.008 µM
- EC50 (CMV): 0.156 µM

SMILES: CN(C)/C=N/S(=O)(=O)C1(CN2CCc3c(C(=O)NCc4ccc(Cl)cc4)nn(C)c3C2=O)CC1 [Example 122, (E)-N-(4-chlorobenzyl)-6-((1-(N-((dimethylamino)methylene)sulfamoyl)cyclopropyl)methyl)-1-methyl-7-oxo-4,5,6,7-tetrahydro-1H-pyrazolo[3,4-c]pyridine-3-carboxamide]
- IC50 (CMV-polymerase; [2]): 0.007 µM
- EC50 (CMV): 0.298 µM

SMILES: Cn1nc(C(=O)NCc2ccc(C#N)cc2)c2c1C(=O)N(CC1(S(=O)(=O)N3CCOCC3)CC1)CC2 [Example 124, N-(4-Cyanobenzyl)-1-methyl-6-((1-(morpholinosulfonyl)cyclopropyl)methyl)-7-oxo-4,5,6,7-tetrahydro-1H-pyrazolo[3,4-c]pyridine-3-carboxamide]
- IC50 (CMV-polymerase; [2]): 0.006 µM
- EC50 (CMV): 0.156 µM

SMILES: Cn1nc(C(=O)NCc2ccc(C#N)cc2)c2c1C(=O)N(CC1(S(=O)(=O)N3CCC(O)CC3)CC1)CC2 [Example 125, N-(4-Cyanobenzyl)-6-((1-((4-hydroxypiperidin-1-yl)sulfonyl)cyclopropyl)methyl)-1-methyl-7-oxo-4,5,6,7-tetrahydro-1H-pyrazolo[3,4-c]pyridine-3-carboxamide]
- IC50 (CMV-polymerase; [2]): 0.003 µM
- EC50 (CMV): 0.196 µM

SMILES: Cn1nc(C(=O)NCc2ccc(C#N)cc2)c2c1C(=O)N(CC1(S(=O)(=O)N3CC[C@@H](O)C3)CC1)CC2 [Example 126, (R)-N-(4-Cyanobenzyl)-6-((1-((3-hydroxypyrrolidin-1-yl)sulfonyl)cyclopropyl)methyl)-1-methyl-7-oxo-4,5,6,7-tetrahydro-1H-pyrazolo[3,4-c]pyridine-3-carboxamide]
- IC50 (CMV-polymerase; [2]): 0.004 µM
- EC50 (CMV): 0.118 µM

SMILES: Cn1nc(C(=O)NCc2ccc(C#N)cc2)c2c1C(=O)N(CC1(S(=O)(=O)N3CC[C@H](O)C3)CC1)CC2 [Example 127, (S)-N-(4-Cyanobenzyl)-6-((1-((3-hydroxypyrrolidin-1-yl)sulfonyl)cyclopropyl)methyl)-1-methyl-7-oxo-4,5,6,7-tetrahydro-1H-pyrazolo[3,4-c]pyridine-3-carboxamide]
- IC50 (CMV-polymerase; [2]): 0.004 µM
- EC50 (CMV): 0.122 µM

SMILES: Cn1nc(C(=O)NCc2ccc(C#N)cc2)c2c1C(=O)N(CC1(S(=O)(=O)NC3CC3)CC1)CC2 [Example 129, N-(4-cyanobenzyl)-6-((1-(N-cyclopropylsulfamoyl)cyclopropyl)methyl)-1-methyl-7-oxo-4,5,6,7-tetrahydro-1H-pyrazolo[3,4-c]pyridine-3-carboxamide]
- IC50 (CMV-polymerase; [2]): 0.016 µM
- EC50 (CMV): 0.247 µM

SMILES: Cn1nc(C(=O)NCc2ccc(C#N)cc2)c2c1C(=O)N(CC1(S(=O)(=O)NC3COC3)CC1)CC2 [Example 132, N-(4-Cyanobenzyl)-1-methyl-6-((1-(N-(oxetan-3-yl)sulfamoyl)cyclopropyl)methyl)-7-oxo-4,5,6,7-tetrahydro-1H-pyrazolo[3,4-c]pyridine-3-carboxamide]
- IC50 (CMV-polymerase; [2]): 0.02 µM
- EC50 (CMV): 0.289 µM

SMILES: Cn1nc(C(=O)NCc2ccc(C#N)cc2)c2c1C(=O)N(CC1(S(=O)(=O)N3CCNCC3)CC1)CC2 [Example 133, N-(4-Cyanobenzyl)-1-methyl-7-oxo-6-((1-(piperazin-1-ylsulfonyl)cyclopropyl)methyl)-4,5,6,7-tetrahydro-1H-pyrazolo[3,4-c]pyridine-3-carboxamide]
- IC50 (CMV-polymerase; [2]): 0.02 µM
- EC50 (CMV): 0.097 µM

SMILES: Cn1nc(C(=O)NCc2ccc(C#N)cc2)c2c1C(=O)N(CC1(S(=O)(=O)NCCCN)CC1)CC2 [Example 134, 6-((1-(N-(3-Aminopropyl)sulfamoyl)cyclopropyl)methyl)-N-(4-cyanobenzyl)-1-methyl-7-oxo-4,5,6,7-tetrahydro-1H-pyrazolo[3,4-c]pyridine-3-carboxamide]
- IC50 (CMV-polymerase; [2]): 0.031 µM
- EC50 (CMV): 0.443 µM

SMILES: Cn1nc(C(=O)NCc2ccc(C#N)cc2)c2c1C(=O)N(CC1(S(=O)(=O)NCCN)CC1)CC2 [Example 135, 6-((1-(N-(2-Aminoethyl)sulfamoyl)cyclopropyl)methyl)-N-(4-cyanobenzyl)-1-methyl-7-oxo-4,5,6,7-tetrahydro-1H-pyrazolo[3,4-c]pyridine-3-carboxamide]
- IC50 (CMV-polymerase; [2]): 0.062 µM
- EC50 (CMV): 0.536 µM

SMILES: CN1CCN(S(=O)(=O)C2(CN3CCc4c(C(=O)NCc5ccc(C#N)cc5)nn(C)c4C3=O)CC2)CC1 [Example 136, N-(4-Cyanobenzyl)-1-methyl-6-((1-((4-methylpiperazin-1-yl)sulfonyl)cyclopropyl)methyl)-7-oxo-4,5,6,7-tetrahydro-1H-pyrazolo[3,4-c]pyridine-3-carboxamide]
- IC50 (CMV-polymerase; [2]): 0.018 µM
- EC50 (CMV): 0.199 µM

SMILES: Cn1nc(C(=O)NCc2ccc(C#N)cc2)c2c1C(=O)N(CC1(S(=O)(=O)NC3CCNCC3)CC1)CC2 [Example 137, N-(4-Cyanobenzyl)-1-methyl-7-oxo-6-((1-(N-(piperidin-4-yl)sulfamoyl)cyclopropyl)methyl)-4,5,6,7-tetrahydro-1H-pyrazolo[3,4-c]pyridine-3-carboxamide]
- IC50 (CMV-polymerase; [2]): 0.044 µM
- EC50 (CMV): 0.636 µM

SMILES: Cn1nc(C(=O)NCc2ccc(C#N)cc2)c2c1C(=O)N(CC1(S(=O)(=O)N3CCC(N)CC3)CC1)CC2 [Example 138, 6-((1-((4-Aminopiperidin-1-yl)sulfonyl)cyclopropyl)methyl)-N-(4-cyanobenzyl)-1-methyl-7-oxo-4,5,6,7-tetrahydro-1H-pyrazolo[3,4-c]pyridine-3-carboxamide]
- IC50 (CMV-polymerase; [2]): 0.021 µM
- EC50 (CMV): 0.127 µM

SMILES: Cn1nc(C(=O)NCc2ccc(C#N)cc2)c2c1C(=O)N(CC1(S(=O)(=O)N3C[C@@H](N)[C@H](O)C3)CC1)CC2 [Example 139, 6-((1-(((3R,4R)-3-Amino-4-hydroxypyrrolidin-1-yl)sulfonyl)cyclopropyl)methyl)-N-(4-cyanobenzyl)-1-methyl-7-oxo-4,5,6,7-tetrahydro-1H-pyrazolo[3,4-c]pyridine-3-carboxamide]
- IC50 (CMV-polymerase; [2]): 0.008 µM
- EC50 (CMV): 0.533 µM

SMILES: Cn1nc(C(=O)NCc2ccc(C#N)cc2)c2c1C(=O)N(CC1(S(=O)(=O)N3C[C@H](N)[C@@H](O)C3)CC1)CC2 [Example 140, 6-((1-(((3S,4S)-3-Amino-4-hydroxypyrrolidin-1-yl)sulfonyl)cyclopropyl)methyl)-N-(4-cyanobenzyl)-1-methyl-7-oxo-4,5,6,7-tetrahydro-1H-pyrazolo[3,4-c]pyridine-3-carboxamide]
- IC50 (CMV-polymerase; [2]): 0.011 µM
- EC50 (CMV): 0.418 µM

SMILES: Cn1nc(C(=O)NCc2ccc(C#N)cc2)c2c1C(=O)N(CC1(S(=O)(=O)N3CC[C@@H](N)C3)CC1)CC2 [Example 141, (R)-6-((1-((3-Aminopyrrolidin-1-yl)sulfonyl)cyclopropyl)methyl)-N-(4-cyanobenzyl)-1-methyl-7-oxo-4,5,6,7-tetrahydro-1H-pyrazolo[3,4-c]pyridine-3-carboxamide]
- IC50 (CMV-polymerase; [2]): 0.013 µM
- EC50 (CMV): 0.051 µM

SMILES: Cn1nc(C(=O)NCc2ccc(C#N)cc2)c2c1C(=O)N(CC1(S(=O)(=O)N3CC[C@H](N)C3)CC1)CC2 [Example 142, (S)-6-((1-((3-Aminopyrrolidin-1-yl)sulfonyl)cyclopropyl)methyl)-N-(4-cyanobenzyl)-1-methyl-7-oxo-4,5,6,7-tetrahydro-1H-pyrazolo[3,4-c]pyridine-3-carboxamide]
- IC50 (CMV-polymerase; [2]): 0.018 µM
- EC50 (CMV): 0.066 µM

SMILES: Cn1nc(C(=O)NCc2ccc(Cl)cc2)c2c1C(=O)N(CC1(S(=O)(=O)NCCO)CC1)CC2 [Example 143, N-(4-Chlorobenzyl)-6-((1-(N-(2-hydroxyethyl)sulfamoyl)cyclopropyl)methyl)-1-methyl-7-oxo-4,5,6,7-tetrahydro-1H-pyrazolo[3,4-c]pyridine-3-carboxamide]
- IC50 (CMV-polymerase; [2]): 0.019 µM
- EC50 (CMV): 0.138 µM
